This is an account of results in PMC8401933 (Molecules, 2021).

In one assay the target is ROCK2 (Homo sapiens, UniProt O75116). The assay can be described thus: KINOMEscan Kd determination. Conditions: 11-point concentrations, duplicate.
For another assay, the system named is 3T3-L1 cells. The assay can be described thus: Adipocyte differentiation, Oil Red O staining. Conditions: for lipid accumulation / adipocyte differentiation (ORO staining): 3T3-L1, treated during differentiation; for lipid accumulation / adipocyte differentiation (ORO staining) / adipogenesis (ORO staining): stained at day 8; for quantity of lipid droplets (ORO staining): CX-4945 5 μM, KD025 3 μM. In kind it is cell-based. Here is the method:
(§1) The preadipocyte 3T3-L1 cell line was kindly provided by Dr. Hyun-Sung Park (University of Seoul) and cultured in Dulbecco’s modified Eagle’s medium (DMEM, Sigma-Aldrich) supplied with 10% heat-inactivated newborn calf serum (Invitrogen, CA, USA), 100 units/mL penicillin, and 100 µg/mL streptomycin (Cellgro, VA, USA). The cells were maintained in an incubator at 37 °C and 5% CO2. To initiate differentiation, the cells were incubated for additional days after 100% confluence and then further incubated in a medium containing fetal bovine serum (FBS) and a differentiation cocktail (DMI, 1 μM dexamethasone, 0.5 mM 3-isobutyl-1-methylxanthine, and 5 μg/mL insulin) as previously described. In brief, at day 3, the culture medium was replaced with DMEM/10%FBS containing 5 µg/mL insulin. Then, growth medium was changed every 2 days.
Lipid droplets of cells were stained using ORO (Sigma-Aldrich, MA, USA). In brief, the cells were washed with phosphate buffered saline and incubated with 10% formalin for 5 min. The cells were then fixed with the same volume of fresh formalin for at least 1 h. Subsequently, the cells were washed with 60% isopropanol, air dried completely, and then stained with ORO working solution (1% ORO/isopropanol: distilled water = 3:2). The stained cells were washed with water four times. Cell images were taken by a microscope (Nikon Eclipse TS100-F, Japan). Then, 100% isopropanol was added and incubated for 10 min to quantify the intensity of ORO. The quantity of extracted dye was obtained by obtaining absorbance at 540 nm in the Synergy H1 hybrid reader (BioTek, VT, USA).

The test system of assay [1] is Pparg and Cebpa genes in 3T3-L1 cells. Put plainly: qRT-PCR of adipogenic genes during differentiation. Format: cell-based. The settings on record: 3T3-L1 during differentiation; KD025 5 μM, CX-4945 10 μM, Y-27632 10 μM. As to the method:
as §1
Total RNA was extracted using easy-BLUE (iNtRON Biotechnology, Dajeon, Korea) in accordance with the manufacturer’s protocol. cDNA was synthesized from 2 µg of total RNA using TOPscript^TM Drymix Kit (Enzynomics, Dajeon, Korea). qRT-PCR was performed using TB Green ® Premix Ex Taq^TM II (Tli RNAse H Plus) (TaKaRa, Japan) with Applied Biosystems QuantStudio™ 1 Real-Time PCR System (Thermo Fisher Scientific, Waltham, MA, USA). Gene expression data were normalized based on the use of the same amount of total RNA samples. The relative fold change of gene expression was calculated using the ∆Ct method.
On the technique in general: Real-time PCR tracks product formation cycle by cycle.

Entries after “also recorded” stand apart in the source; their conditions may differ.

Sequence of ROCK2 (O75116 whole entry): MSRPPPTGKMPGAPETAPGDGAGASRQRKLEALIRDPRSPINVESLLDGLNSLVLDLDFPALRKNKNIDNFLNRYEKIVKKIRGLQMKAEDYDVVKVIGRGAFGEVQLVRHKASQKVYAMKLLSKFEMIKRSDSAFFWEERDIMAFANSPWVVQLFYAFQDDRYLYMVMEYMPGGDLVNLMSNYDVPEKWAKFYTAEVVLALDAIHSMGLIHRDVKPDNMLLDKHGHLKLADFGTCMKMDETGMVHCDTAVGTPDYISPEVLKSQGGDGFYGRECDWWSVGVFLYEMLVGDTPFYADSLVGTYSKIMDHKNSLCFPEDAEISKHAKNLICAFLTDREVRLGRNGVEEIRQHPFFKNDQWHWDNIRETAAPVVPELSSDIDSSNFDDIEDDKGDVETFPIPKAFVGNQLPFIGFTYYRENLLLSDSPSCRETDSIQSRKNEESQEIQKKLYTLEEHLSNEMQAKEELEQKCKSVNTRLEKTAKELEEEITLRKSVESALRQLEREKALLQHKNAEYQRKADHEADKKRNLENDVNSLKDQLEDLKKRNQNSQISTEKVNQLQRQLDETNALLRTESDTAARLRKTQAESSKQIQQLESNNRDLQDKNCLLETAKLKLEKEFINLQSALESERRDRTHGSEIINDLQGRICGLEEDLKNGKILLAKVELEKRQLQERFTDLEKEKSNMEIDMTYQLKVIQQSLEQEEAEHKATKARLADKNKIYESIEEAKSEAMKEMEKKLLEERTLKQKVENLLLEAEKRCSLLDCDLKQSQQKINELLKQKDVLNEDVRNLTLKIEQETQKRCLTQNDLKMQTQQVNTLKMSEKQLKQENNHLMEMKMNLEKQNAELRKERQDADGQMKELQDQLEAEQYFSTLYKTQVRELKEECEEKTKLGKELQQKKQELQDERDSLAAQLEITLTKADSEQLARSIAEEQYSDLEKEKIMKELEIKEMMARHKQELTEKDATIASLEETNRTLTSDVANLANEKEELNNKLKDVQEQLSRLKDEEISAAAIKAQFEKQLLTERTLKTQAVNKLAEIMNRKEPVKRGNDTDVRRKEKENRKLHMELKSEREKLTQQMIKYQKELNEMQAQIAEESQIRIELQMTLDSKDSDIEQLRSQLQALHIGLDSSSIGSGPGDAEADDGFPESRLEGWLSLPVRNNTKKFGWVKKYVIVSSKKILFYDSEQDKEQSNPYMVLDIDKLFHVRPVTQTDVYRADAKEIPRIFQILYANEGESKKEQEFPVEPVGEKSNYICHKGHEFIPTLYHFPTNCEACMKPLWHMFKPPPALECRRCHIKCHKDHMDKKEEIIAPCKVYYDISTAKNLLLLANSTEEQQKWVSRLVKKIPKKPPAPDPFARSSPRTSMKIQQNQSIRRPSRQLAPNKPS
Method for ROCK2: Dissociation constant (Kd) was measured using KINOMEscan^TM profiling service. […] The binding activity of inhibitors was monitored by measuring remained kinase-ligand binding activity. Kd was calculated based on the nonlinear least-square fit model by using the “drm” function of drc package [54] in R software (version 3.6.1).

`O=C(O)c1ccc2c(c1)nc(Nc1cccc(Cl)c1)c1ccncc12` [CX-4945]: the Kd entry on ROCK2 is “no selective interaction; also recorded: did not show such cross-reactivity”. Also, the “lipid accumulation / adipocyte differentiation (ORO staining)” value with 3T3-L1 cells was “suppressed the generation of lipid droplets; also recorded: significantly reduced the amount of accumulated fat in a dose-dependent manner”. The “quantity of lipid droplets (ORO staining)” value is “ineffective; also recorded: lesser effect” in the assay with 3T3-L1 cells (3T3-L1, treated during the early (days 0–1) or late (days 5–8) stage) and “acted specifically in the middle stage; also recorded: significantly reduced” in the assay on 3T3-L1 cells (3T3-L1, treated during the intermediate stage (days 1–3)). Besides, in assay [1], the “expression of Pparg and Cebpa genes” value is given as “markedly suppressed”.

As for `CN(C)c1nc2c(Br)c(Br)c(Br)c(Br)c2[nH]1` [DMAT, 2-dimethylamino-4,5,6,7-tetrabromo-1H-benzimidazole], the “adipogenesis (ORO staining)” value is listed as “promoting reversely the differentiation” in the assay on 3T3-L1 cells (3T3-L1, 5 μM) and “inhibited the adipogenesis” in the assay with 3T3-L1 cells (3T3-L1, 30 μM). In addition, the “lipid accumulation / adipocyte differentiation (ORO staining)” value with 3T3-L1 cells is listed as “inhibited effectively”.

Turning to `C[C@@H](N)[C@H]1CC[C@H](C(=O)Nc2ccncc2)CC1` [Y-27632], the “expression of Pparg and Cebpa genes” value in assay [1] is given as “increased; also recorded: did not suppress”.

Turning to `O=S(=O)(c1cccc2cnccc12)N1CCCNCC1` [fasudil], the figures for the “lipid accumulation / adipocyte differentiation (ORO staining)” value with 3T3-L1 cells and in the assay on 3T3-L1 cells (listed as Fasudil) were “does not” and “no significant effect”, respectively.

As for `O=C1c2ccc(O)c(O)c2C(=O)c2c(O)ccc(O)c21` [quinalizarin, 1,2,5,8-tetrahydroxyanthraquinone], the “adipogenesis (ORO staining)” value in the assay with 3T3-L1 cells (3T3-L1, 5, 10, and 30 μM) is given as “suppressed adipogenesis”. Also, in the assay on 3T3-L1 cells, the “lipid accumulation / adipocyte differentiation (ORO staining)” value was “inhibited effectively”.
